Assay: Determination of the single i.v. dose MTD in normal female BALB/c mice
Type: in vivo
Method: The Maximal Tolerated Dose (MTD) is determined according to standard procedures; preferably, in warm-blooded animals the MTD in case of oral or intravenous administration is determined as the Dose of a single administration where no death occurs and a loss of body weight of less than 40, preferably less than 25, percent (%) is found in the treated warm-blooded animal individual (this term here mainly referring to an animal; for humans see below).
For the MTD determination, female BALB/c nude mice or BALB/c mice (obtained from Novartis Animal Farm, Sisseln, Switzerland) are treated once intravenously with epothilone B (n=3 per dose group). The dosage is increased (2, 4, 6, 8, 10 and 12 mg/kg) and the mice are observed for the presentation of overt toxic effects for 10 days after drug treatment.

[1] = 2 mg/kg single i.v. bolus, Experiment 2
[2] = 4 mg/kg single i.v. bolus, Experiment 2
[3] = 6 mg/kg single i.v. bolus, Experiment 1
[4] = 6 mg/kg single i.v. bolus, Experiment 2
[5] = 8 mg/kg single i.v. bolus, Experiment 1
[6] = 8 mg/kg single i.v. bolus, Experiment 2
[7] = 10 mg/kg single i.v. bolus, Experiment 1
[8] = 12 mg/kg single i.v. bolus, Experiment 1

SMILES: C/C(=C\c1csc(C)n1)[C@@H]1C[C@@H]2O[C@]2(C)CCC[C@H](C)[C@H](O)[C@@H](C)C(=O)C(C)(C)[C@@H](O)CC(=O)O1 [epothilone B]
- Body Weight % Change [1]: 12.3 ± 3.0%
- Body Weight Δ (mean g ± SD) [1]: 2.3 ± 0.6 g
- Mortalities [1]: 0/3
- Body Weight % Change [2]: 6.5 ± 2.6%
- Body Weight Δ (mean g ± SD) [2]: 1.3 ± 0.6 g
- Mortalities [2]: 0/3
- Body Weight % Change [3]: −28.6 ± 3.5%
- Body Weight Δ (mean g ± SD) [3]: -6.1 ± 0.9 g
- Mortalities [3]: 1/3
- Body Weight % Change [4]: −27.5 ± 2.1%
- Body Weight Δ (mean g ± SD) [4]: -5.3 ± 0.6 g
- Mortalities [4]: 2/3
- Body Weight % Change [5]: −22.1 ± 13.1%
- Body Weight Δ (mean g ± SD) [5]: -5.1 ± 3.2 g
- Mortalities [5]: 3/3
- Body Weight % Change [6]: −25.3 ± 3.9%
- Body Weight Δ (mean g ± SD) [6]: -5.0 ± 1.0 g
- Mortalities [6]: 3/3
- Body Weight % Change [7]: −24.9 ± 1.6%
- Body Weight Δ (mean g ± SD) [7]: -5.6 ± 0.6 g
- Mortalities [7]: 3/3
- Body Weight % Change [8]: −23.6 ± 11.9%
- Body Weight Δ (mean g ± SD) [8]: -5.4 ± 2.9 g
- Mortalities [8]: 3/3
- MTD (single dose i.v., normal mice): 4 mg/kg

Reference: patent US7875601B2, “Cancer treatment with epothilones” (Novartis AG, priority 1998, dated 2011)
